Measurements as given in the NIST ThermoML archive (doi:10.1016/j.jct.2016.06.016).

Assay: refractive index (Na D-line) (dimensionless); xn = mol fraction of the nth substance listed
Conditions: 100 kPa, Liquid, Standard Abbe refractometry

CCOC(=O)CCC(=O)OCC [diethyl butanedioate] + CCCCCCO
refractive index
Conditions | x1 = 0.0999 | x1 = 0.2 | x1 = 0.3001 | x1 = 0.4 | x1 = 0.4999 | x1 = 0.6 | x1 = 0.7002 | x1 = 0.7999 | x1 = 0.9 | x1 = 1
288.15 K | 1.4192 | 1.419 | 1.4189 | 1.4191 | 1.4193 | 1.4197 | 1.4202 | 1.4207 | 1.4212 | 1.4217
293.15 K | 1.4172 | 1.4169 | 1.4168 | 1.417 | 1.4172 | 1.4176 | 1.418 | 1.4185 | 1.419 | 1.4195
298.15 K | 1.4152 | 1.4148 | 1.4147 | 1.4148 | 1.415 | 1.4154 | 1.4158 | 1.4163 | 1.4168 | 1.4173
303.15 K | 1.4131 | 1.4127 | 1.4126 | 1.4127 | 1.4129 | 1.4133 | 1.4136 | 1.4142 | 1.4147 | 1.4151
308.15 K | 1.4111 | 1.4107 | 1.4105 | 1.4106 | 1.4108 | 1.4111 | 1.4115 | 1.412 | 1.4125 | 1.4129
313.15 K | 1.409 | 1.4086 | 1.4084 | 1.4084 | 1.4086 | 1.4089 | 1.4093 | 1.4098 | 1.4103 | 1.4108
318.15 K | 1.407 | 1.4065 | 1.4063 | 1.4063 | 1.4064 | 1.4068 | 1.4071 | 1.4076 | 1.4082 | 1.4088
323.15 K | 1.4049 | 1.4044 | 1.4042 | 1.4042 | 1.4043 | 1.4046 | 1.405 | 1.4054 | 1.406 | 1.4067

CCOC(=O)CCC(=O)OCC [diethyl butanedioate] + CCCCO
refractive index
Conditions | x1 = 0.1 | x1 = 0.2001 | x1 = 0.3 | x1 = 0.3999 | x1 = 0.5 | x1 = 0.6001 | x1 = 0.6998 | x1 = 0.7999 | x1 = 0.8997 | x1 = 1
288.15 K | 1.4042 | 1.4069 | 1.4094 | 1.4116 | 1.4137 | 1.4156 | 1.4173 | 1.419 | 1.4204 | 1.4217
293.15 K | 1.4021 | 1.4048 | 1.4072 | 1.4094 | 1.4115 | 1.4134 | 1.4151 | 1.4168 | 1.4182 | 1.4195
298.15 K | 1.4 | 1.4027 | 1.405 | 1.4073 | 1.4093 | 1.4112 | 1.4129 | 1.4146 | 1.416 | 1.4173
303.15 K | 1.3979 | 1.4005 | 1.4029 | 1.4051 | 1.4071 | 1.409 | 1.4107 | 1.4123 | 1.4138 | 1.4151
308.15 K | 1.3958 | 1.3983 | 1.4007 | 1.4029 | 1.4049 | 1.4068 | 1.4085 | 1.4101 | 1.4116 | 1.4129
313.15 K | 1.3936 | 1.3962 | 1.3985 | 1.4007 | 1.4027 | 1.4046 | 1.4063 | 1.4079 | 1.4094 | 1.4108
318.15 K | 1.3915 | 1.394 | 1.3963 | 1.3985 | 1.4005 | 1.4024 | 1.4041 | 1.4058 | 1.4073 | 1.4088
323.15 K | 1.3894 | 1.3918 | 1.3942 | 1.3963 | 1.3983 | 1.4002 | 1.402 | 1.4036 | 1.4052 | 1.4067

CCOC(=O)CCC(=O)OCC [diethyl butanedioate] + CCCO
refractive index
Conditions | x1 = 0.1 | x1 = 0.2 | x1 = 0.2999 | x1 = 0.3998 | x1 = 0.4999 | x1 = 0.6001 | x1 = 0.7001 | x1 = 0.8002 | x1 = 0.8997 | x1 = 1
288.15 K | 1.394 | 1.3993 | 1.4037 | 1.4075 | 1.4107 | 1.4135 | 1.416 | 1.4182 | 1.4201 | 1.4217
293.15 K | 1.3918 | 1.3971 | 1.4016 | 1.4053 | 1.4085 | 1.4113 | 1.4138 | 1.416 | 1.4179 | 1.4195
298.15 K | 1.3897 | 1.395 | 1.3994 | 1.4031 | 1.4063 | 1.4091 | 1.4116 | 1.4138 | 1.4157 | 1.4173
303.15 K | 1.3876 | 1.3928 | 1.3972 | 1.4009 | 1.4041 | 1.4069 | 1.4094 | 1.4116 | 1.4135 | 1.4151
308.15 K | 1.3854 | 1.3906 | 1.3949 | 1.3986 | 1.4018 | 1.4047 | 1.4072 | 1.4094 | 1.4113 | 1.4129
313.15 K | 1.3831 | 1.3883 | 1.3927 | 1.3964 | 1.3996 | 1.4025 | 1.4049 | 1.4072 | 1.4091 | 1.4108
318.15 K | 1.3809 | 1.3861 | 1.3905 | 1.3942 | 1.3974 | 1.4002 | 1.4027 | 1.4049 | 1.4069 | 1.4088
323.15 K | 1.3787 | 1.3839 | 1.3882 | 1.392 | 1.3952 | 1.398 | 1.4005 | 1.4027 | 1.4048 | 1.4067
